Laboratory results from patent US11242327B2, “Analgesic compounds” (RECURIUM IP HOLDINGS, LLC, priority 2017, dated 2022).

How the values were obtained:
Type in all cases: in vivo
male Sprague-Dawley rats [1] = assay: UVB Inflammatory Pain Test (thermal hyperalgesia); details: rat, oral, 30 mg/kg
Experimental: UVB irradiation to the surface of the hind paw was used to induce cutaneous inflammatory pain in non-fasted male Sprague-Dawley rats weighing 175-300 g. On Day −3, animals were restrained and the plantar surface of the left hind paw was exposed to 350 mJoules/cm^2 of UVB irradiation using a narrow band UVB light source (Daavlin®, Bryan, Ohio). Following UVB irradiation, animals were returned to their home cage. Thermal hyperalgesia was assessed prior to dosing and approximately 1, 2, and 4 hours after dosing on Day 0 using a radiant heat plantar test apparatus (IITC Life Sciences©; Woodland Hills, Calif.). Animals were placed in individual acrylic chambers on a glass platform warmed to 30±2° C. and allowed to acclimate to their surroundings for a minimum of 15 minutes before testing. The stimulus was presented to the plantar surface and the timer was activated. The stimulus intensity was set such that pre-injury paw withdrawal latencies were approximately 12-18 seconds. Paw withdrawal latency values were recorded at the first observed nocifensive behavior (paw withdrawal, flinching, biting and/or licking). Three paw withdrawal latencies were measured for each hind paw per time point. The mean of the 3 values was taken as the paw withdrawal latency for that time point. A maximum cutoff latency of 30 seconds was used to prevent injury to the animal. The mean and standard error of the mean (SEM) were determined for each paw for each treatment group at each time point. Test compounds were administered orally at concentrations of 3, 10, 30 or 100 mg/kg; celecoxib was administered orally at a concentration of 30 mg/kg; and acetaminophen was administered orally at a concentration of 300 mg/kg. The control group received the vehicle (sterile water). In Table 4, ‘A’ designates >8 seconds of paw withdrawal latency, ‘B’ designates >6 and <8 seconds of paw withdrawal latency, and ‘C’ designates <6 seconds of paw withdrawal latency.
The results provided in Table 4 are for oral administration in rats. […] Furthermore, while acetaminophen was dosed at 300 mg/kg, compounds of Formulae (Ie), (Ih) and (Ik), or a pharmaceutically acceptable salt of any of the foregoing, were dosed at 3 mg/kg, 10 mg/kg and 100 mg/kg.

male Sprague-Dawley rats [2] = assay: Osteoarthritis Pain Test (MIA, mechanical hyperalgesia); details: rat, oral once daily, 30 mg/kg
Experimental: Osteoarthritis pain was induced in non-fasted male Sprague-Dawley rats weighing 150-250 g by injecting 2 mg of monosodium iodoacetate (MIA) into the left knee joint. Mechanical hyperalgesia was measured using a digital Randall-Selitto device (dRS; IITC Life Sciences©; Woodland Hills, Calif.). Animals were allowed to acclimate to the testing room for a minimum of 15 minutes before testing. Animals were placed in a restraint sling that suspended the animal, leaving the hind limbs available for testing. The stimulus was applied to the knee joint by a blunt tip and pressure was applied gradually over approximately 10 seconds. Joint compression threshold values were recorded at the first observed nocifensive behavior (vocalization, struggle, or withdrawal). One reading per joint was taken at each time point, and a maximum stimulus cutoff of 500 grams was used to prevent injury to the animal. Mechanical hyperalgesia was assessed prior to MIA injection, and again 14 days later. After 14 days, test or control articles were administered once daily for 7 days with mechanical hyperalgesia assessed prior to dosing, 1, 2, and 4 hours post-dosing on days 0, 3, and 6. Test compounds were administered orally at concentrations of 3, 10, 30 or 100 mg/kg and celecoxib was administered orally at a concentration of 30 mg/kg. The control group received the vehicle (sterile water). After day 0, groups receiving the 100 mg/kg dose were reduced to a dose of 3 mg/kg. In Table 5, ‘A’ designates ≥375 grams of joint compression, ‘B’ designates ≥325 and <375 grams of joint compression, and ‘C’ designates <325 grams of joint compression.
The results provided in Table 5 are for oral administration in rats.

male Sprague-Dawley rats [3] = assay: Formalin Paw Test, rat, oral; details: 30 mg/kg; for Early Phase, seconds of paw licking: early/acute phase (0-10 minutes); for Late Phase, seconds of paw licking: late/tonic phase (10-35 minutes)
Experimental: One test compound or the vehicle was administered to each rat or mouse in each test group (8 rats or mice per group). Non-fasted male Sprague-Dawley rats weighing 200-225 g or non-fasted male ICR mice weighing 23±3 g were used. […] Responses were measured every 5 minutes after the formalin injection for 35 minutes. The results in Table 2 are for oral administration in rat and the results in Table 3 are for intraperitoneal administration in mouse. In Tables 2 and 3, 'A' designates <70 seconds of paw licking, 'B' designates >70 and <165 seconds of paw licking, and 'C' designates >165 seconds of paw licking.

Compound	Early Phase, seconds of paw licking (male Sprague-Dawley rats [3])	Late Phase, seconds of paw licking (male Sprague-Dawley rats [3])	also measured
Cc1ccc(-c2cc(C(F)(F)F)nn2-c2ccc(S(N)(=O)=O)cc2)cc1 [Celecoxib, reference compound]	–	–	paw withdrawal latency, 1 h (male Sprague-Dawley rats [1]; 1 h after dosing): A (>8 seconds of paw withdrawal latency); paw withdrawal latency, 2 h (male Sprague-Dawley rats [1]; 2 h after dosing): A (>8 seconds of paw withdrawal latency); paw withdrawal latency, 4 h (male Sprague-Dawley rats [1]; 4 h after dosing): A (>8 seconds of paw withdrawal latency); joint compression threshold, Day 0, 1 h (male Sprague-Dawley rats [2]; Day 0, 1 h post-dosing): B (≥325 and <375 grams of joint compression); joint compression threshold, Day 0, 2 h (male Sprague-Dawley rats [2]; Day 0, 2 h post-dosing): A (≥375 grams of joint compression); joint compression threshold, Day 0, 4 h (male Sprague-Dawley rats [2]; Day 0, 4 h post-dosing): B (≥325 and <375 grams of joint compression); joint compression threshold, Day 3, 1 h (male Sprague-Dawley rats [2]; Day 3, 1 h post-dosing): C (<325 grams of joint compression); joint compression threshold, Day 3, 2 h (male Sprague-Dawley rats [2]; Day 3, 2 h post-dosing): A (≥375 grams of joint compression); joint compression threshold, Day 3, 4 h (male Sprague-Dawley rats [2]; Day 3, 4 h post-dosing): A (≥375 grams of joint compression); joint compression threshold, Day 6, 1 h (male Sprague-Dawley rats [2]; Day 6, 1 h post-dosing): B (≥325 and <375 grams of joint compression); joint compression threshold, Day 6, 2 h (male Sprague-Dawley rats [2]; Day 6, 2 h post-dosing): A (≥375 grams of joint compression); joint compression threshold, Day 6, 4 h (male Sprague-Dawley rats [2]; Day 6, 4 h post-dosing): A (≥375 grams of joint compression)
Cl.NC12CC(c3ccc(C(F)(F)F)cc3)(C1)C2 [Compound 3, 3-(4-(trifluoromethyl)phenyl)bicyclo[1.1.1]pentan-1-amine hydrochloride]	A (<70 seconds of paw licking)	A (<70 seconds of paw licking)	–
COc1ccc(C23CC(N)(C2)C3)cc1.Cl [Compound 4, 3-(4-Methoxyphenyl)bicyclo[1.1.1]pentan-1-amine hydrochloride]	A (<70 seconds of paw licking)	A (<70 seconds of paw licking)	–
Cl.NC12CC(c3cccc(C(F)(F)F)c3)(C1)C2 [Compound 5]	A (<70 seconds of paw licking)	B (>70 and <165 seconds of paw licking)	–
CCNC12CC(C(F)(F)F)(C1)C2.Cl [Compound 8, N-Ethyl-3-(trifluoromethyl)bicyclo[1.1.1]pentan-1-amine hydrochloride]	A (<70 seconds of paw licking)	C (>165 seconds of paw licking)	–
Cl.OCCNC12CC(C(F)(F)F)(C1)C2 [Compound 9, 2-((3-(Trifluoromethyl)bicyclo[1.1.1]pentan-1-yl)amino)ethan-1-ol hydrochloride]	A (<70 seconds of paw licking)	C (>165 seconds of paw licking)	–
Cl.NC12CC(c3ccc(Cl)cc3)(C1)C2 [Compound 10, 3-(4-Chlorophenyl)bicyclo[1.1.1]pentan-1-amine hydrochloride]	A (<70 seconds of paw licking)	A (<70 seconds of paw licking)	–
Cl.NC12CC(c3ccnc(C(F)(F)F)n3)(C1)C2 [Compound 11, 3-(2-(Trifluoromethyl)pyrimidin-4-yl)bicyclo[1.1.1]pentan-1-amine hydrochloride]	A (<70 seconds of paw licking)	C (>165 seconds of paw licking)	–
Cl.NC12CC(c3nccc(C(F)(F)F)n3)(C1)C2 [Compound 12, 3-(4-(Trifluoromethyl)pyrimidin-2-yl)bicyclo[1.1.1]pentan-1-amine hydrochloride]	A (<70 seconds of paw licking)	C (>165 seconds of paw licking)	–
Cl.NC12CC(c3nc4cc(C(F)(F)F)ccc4s3)(C1)C2 [Compound 14, 3-(5-(trifluoromethyl)benzo[d]thiazol-2-yl)bicyclo[1.1.1]pentan-1-amine hydrochloride]	A (<70 seconds of paw licking)	C (>165 seconds of paw licking)	–
Cl.NC12CC(c3nc4cc(C(F)(F)F)ccc4o3)(C1)C2 [Compound 15, 3-(5-(Trifluoromethyl)benzo[d]oxazol-2-yl)bicyclo[1.1.1]pentan-1-amine hydrochloride]	A (<70 seconds of paw licking)	C (>165 seconds of paw licking)	–
Cl.NC12CC(c3nc4cc(Cl)ccc4o3)(C1)C2 [Compound 16, 3-(5-chlorobenzo[d]oxazol-2-yl)bicyclo[1.1.1]pentan-1-amine hydrochloride]	A (<70 seconds of paw licking)	C (>165 seconds of paw licking)	–
Cl.NC12CC(c3nc4cc(F)ccc4[nH]3)(C1)C2 [Compound 17, 3-(5-fluoro-1H-benzo[d]imidazol-2-yl)bicyclo[1.1.1]pentan-1-amine hydrochloride]	A (<70 seconds of paw licking)	C (>165 seconds of paw licking)	–
COc1cccc(C23CC(N)(C2)C3)c1.Cl [Compound 18, 3-(3-Methoxyphenyl)bicyclo[1.1.1]pentan-1-amine hydrochloride]	A (<70 seconds of paw licking)	B (>70 and <165 seconds of paw licking)	–
CC(F)(F)C12CC(N)(C1)C2.Cl [Compound 19, 3-(1,1-Difluoroethyl)bicyclo[1.1.1]pentan-1-amine hydrochloride]	A (<70 seconds of paw licking)	B (>70 and <165 seconds of paw licking)	–
CC(C)C(F)(F)C12CC(N)(C1)C2.Cl [Compound 20, 3-(1,1-Difluoro-2-methylpropyl)bicyclo[1.1.1]pentan-1-amine hydrochloride]	A (<70 seconds of paw licking)	C (>165 seconds of paw licking)	–
CC(C)=C(F)C12CC(N)(C1)C2.Cl [Compound 21, 3-(1-fluoro-2-methylprop-1-en-1-yl)bicyclo[1.1.1]pentan-1-amine hydrochloride]	A (<70 seconds of paw licking)	C (>165 seconds of paw licking)	–
Cl.NC12CC(c3ccccc3)(C1)C2 [Compound 22, 3-Phenylbicyclo[1.1.1]pentan-1-amine hydrochloride]	A (<70 seconds of paw licking)	B (>70 and <165 seconds of paw licking)	–
